Measurements: patent US12098159B2, “Solid forms of substituted benzoxaborole and compositions thereof” (5Metis, Inc., priority 2018, dated 2024)

Columns and labels:
Format in all cases: physicochemical
[1] = Dynamic vapor sorption (DVS) of Type A
Text: After preparation by the method described in Example 1, the starting material was characterized by X-ray powder diffraction (XRPD), thermo gravimetric analysis (TGA), differential scanning calorimetry (DSC), dynamic vapor sorption (DVS), high performance liquid chromatography (HPLC), and ^1H solution nuclear magnetic resonance (^1H NMR).
(§1) This difference was postulated to be caused by preferred orientation, since the morphology of Type A starting material was rod-like. A two-stage weight loss of 0.5% up to 100° C. and 10.0% from 100° C. to 160° C. was observed on the TGA curve. […] (onset temperature). The DVS isotherm plot of Type A was collected at 25° C. between 0 and 95% RH.

[2] = TGA weight loss (ramp, cycle and isothermal TGA)
Protocol: TGA data were collected using a TA Q5000/5500 TGA from TA Instruments. DSC was performed using a TA Q2000/2500 DSC from TA Instruments.
as §1
The results of VT-XRPD and heating experiment preliminarily confirmed the dehydration reaction. However, the theoretical weight loss of dehydration was calculated to be 5.4%, which was not consistent with the observed TGA weight loss of 10.0%. To further explain the difference on weight loss, the TGA data of Type A were re-visited. The results in FIG. 23B indicate that there might be 2 events involved in the TGA weight loss from 100° C. to 160° C., one of which is the dehydration of (I) (the theoretical weight loss of dehydration was close to the TGA weight loss up to 128° C.), while the other may be the complete decomposition or sublimation of the dehydrated product (if it's partial decomposition, the sample after heated should not convert back to (I) upon exposure to air).
Cycle TGA was conducted by heating Type A to 160° C. and cooling to 50° C. (with N2 purge, without exposure to air), followed by re-heating to 160° C. […] Isothermal TGA was conducted by heating Type A to 160° C. and isothermal at 160° C. for 0.5 hr. A weight loss of >20% was observed during the isothermal stage FIG. 24B, which was postulated to be decomposition/sublimation.

[3] = VT-XRPD and heating experiments: dehydration of (I) to (II) and conversion back
Protocol: The compound of formula (II) can be prepared by heating the compound of formula (I) under vacuum or by exposing the compound of formula (I) to dehydrating conditions.
To confirm this hypothesis, variable-temperature XRPD (VT-XRPD) and heating experiments were performed. […] The ^1H NMR results in FIG. 22B show no difference before and after heating, likely because the dehydrated product converted back to (I) after being exposed to residual water in DMSO-d6. TGA was also performed by heating (I) to 160° C. and cooling to room temperature, followed by re-heating to 160° C. after placed being placed under ambient conditions overnight. […] All the results were consistent with the hypothesis that dehydration and hydration reactions would occur during heating and exposure to air, respectively.

Row | water up-take (DVS) ([1]; 25° C./80% RH) | form change after the DVS test (XRPD) ([1]; DVS at 25° C. between 0 and 95% RH) | TGA weight loss ([2]; from 100° C. to 160° C.) | cycle TGA weight loss on the re-heating curve ([2]; heated to 160° C., cooled to 50° C. with N2 purge, re-heated, up to 150° C.) | isothermal TGA weight loss ([2]; isothermal at 160° C. for 0.5 hr) | Wt Loss on TGA (%, up to 100° C.) ([2]; up to 100° C.) | XRPD pattern of dehydrated product after exposure to air ([3]; after heating to 140° C. with N2 purge, exposed in air for 3 hrs) | behaviour on exposure to water ([3]; exposed to water) | SMILES | XRPD after heating experiment ([3]; heated to 160° C. and cooled to RT, exposed to air)
1 | 0.1% | no form change was observed | 10.0% | 1.3% | > 20% | 0.5% | – | – | OB1OCc2cc(Cl)ccc21 [(I), 5-chlorobenzo[c][1,2]oxaborol-1(3H)-ol] | partial conversion to the dehydrated product (II)
2 | – | – | – | – | – | – | converted back to Type A | reverts to the compound of formula (I) | Clc1ccc2c(c1)COB2OB1OCc2cc(Cl)ccc21 [(II), 1,1′-oxybis(5-chloro-1,3-dihydrobenzo[c][1,2]oxaborole)] | –
